Reference: patent US20200206198A1, “CFTR CHANNEL ACTIVATOR FOR USE IN THE TREATMENT AND/OR PREVENTION OF GLUTEN SENSITIVITY CONDITIONS” (priority 2017, published 2020)

Tested on: Caco-2 cells
Assay: P31-43-induced epithelial stress markers in Caco-2 cells (immunoblot)
Format: cell-based, human
Experimental: Human colon adenocarcinoma-derived Caco-2 and T84 cells were obtained from the ATCC. Cells were maintained in T25 flask in Modified Eagle Medium (MEM) for Caco-2, or Ham's F12+DMEM (1:1) for T84, supplemented with 10% fetal bovine serum (FBS), 2 mM Glutamine+1% Non Essential Amino Acids (NEAA) and the antibiotics penicillin\streptomycin (100 units/ml) (all reagents from Lonza) (Luciani, A., et al. 2010. Cells were grown in Transwells (Corning, 3470 or 3460) under the normal condition (Luciani, A., et al. 2012). Briefly, 8×10^4 or 5×10^5 cells were seeded in 6.5-mm diameter or 12-mm diameter, respectively, and grown until the RT reached 800 to 1,200 Ω·cm2. Transwells with a pore size of 0.4 μm were used. Medium in both the apical and basolateral chambers was changed every other day. Cells were treated with 20 μg/ml of either α-gliadin peptide P31-43 or […]-69 or scrambled PGAV or modified P31-43 either biotin-tagged or not, for different time point (from 1 h short challenge up to 24 h). Cells were also treated with 50 or 100 μg/ml of […]-68 or PGAV peptides for 3 h. Caco-2 or T84 cells were also treated with: CFTR potentiators VX-770 (10 μM) or VX-532 (20 μM) (Selleck chemicals) or Genistein (10 μM) (Sigma-Aldrich) or in presence or absence of CFTR inhibitor172 (CFTRinh172, 20 μM) or 3-methyl-adenine (3-MA, 20 μM) (Calbiochem), Z-DON (20 nM, Zedira) or BAPTA-AM (10 μM, Calbiochem). The whole lysate or membrane fraction proteins of cell lines and mice intestine homogenates were obtained from treated and untreated cells or mice as described. The equal amount of protein were resolved by SDS-PAGE gel and blotted with antibodies against: SQSTM1, (Sigma Aldrich, 108k4767) 1:1000, PPARγ (Santa Cruz Biotechnology, sc7273) 1:500, BECN1 (Abcam, ab58878) 1:1000, CFTR clone M3A7 (Abcam, ab4067) 1:500, phospho-ERK1/2 (php42/44, Cell Signaling Technology, #91101) 1:1000, UVRAG (Santa Cruz Biotechnology sc8215) 1:1000, NHERF-1 (BD, 611161) 1:1000, EZRIN (BD, 610603) 1:1000, hVps34 (SigmaV9764) 1:300, biotin (Abcam, ab1227) 1:2000, PKAr2a (BD, 610625) 1:500, Ubiquitin (Cell Signaling clone P4D1, #3936) 1:1000, CHIP (Calbiochem PC711) 1:500, Caspase-1 p10 (M-20) (Santa Cruz Biotechnology, sc-514) 1:200, NLRP3 (Abcam, ab4207), 1:500, IDO1 (monoclonal; cv152) 1:1000^[80], used as primary antibodies. Normalization was performed by probing the membrane with anti-β-actin (Cell Signaling, #4970) 1:1000, anti-Gapdh (Sigma-Aldrich, G8795) 1:1000 and anti-flottilin (Abcam ab15148) 1:1000 antibodies. Immunoprecipitations of endogenous proteins were performed on 500 μg of lysates from Caco-2 cells. The proteins were incubated for 12-18 h at 4° C. with 10 ug\ml of specific antibody followed by the addition of Protein A/G-agarose beads for 4 h at 4° C. The beads were then washed three times with lysis buffer and Laemmli's sample buffer was added to the samples. The membranes were then blotted with: CFTR clone CF3 (Abcam, ab2784) 1:1000, TG2 (clone CUB7402; NeoMarkers) 1:1000, CHIP (Calbiochem PC711) 1:500, Ubiquitin (Cell Signaling clone P4D1 3936), isopeptide (Abcam 422) 1:1000, PKAR2 (BD 610625) 1:500. FIG. 5: a, Immunoprecipitation of TG2 protein 15 in Caco-2 cells challenged with […]-68, PGAV or P31-43 and blotted with HRP-streptavidin. b, Immunoprecipitation of CFTR protein in Caco-2 cells challenged with P31-43 in the presence of absence of the TG2 inhibitor ZDON or TG2 RNA silencing and 20 blotted with anti-isopeptide glutamime-lysine and anti-TG2 antibodies. c, Recombinant TG2 and/or NBD1 incubated in vitro with P31-43 and solved in native page in the presence or absence of Ca2+. d, Immunoprecipitation of CFTR protein and immunblot with anti-CFTR antibodies or anti-TG2 antibodies. e, Immunoprecipitation of CFTR protein and immunoblot with anti-TG2 or anti-CFTR antibodies; effects of ZDON and BAPTA-AM. f, In situ detection of TG2 activity in Caco-2 cells pulsed with Ca2+ in the presence or absence of VX-770 or Z-DON. […]

| Molecule | effect on P31-43-induced PKAr2a cross-linking and phospho-PKA decrease | protection from P31-43-induced downregulation of PPARγ | protection from P31-43-induced phosphorylation of ERK-1/2 | protection from P31-43-induced upregulation of HSP70 expression | TG2-mediated cross-linking of PKAr2a | abundance of phosphorylated PKA protein |
| --- | --- | --- | --- | --- | --- | --- |
| CC(C)(C)c1cc(C(C)(C)C)c(NC(=O)c2c[nH]c3ccccc3c2=O)cc1O [VX-770, N-(2,4-di-tert-butyl-5-hydroxyphenyl)-4-oxo-1,4-dihydroquinoline-3-carboxamide] | counteracted all these TG2-mediated effects of P31-43 | protected | protected | protected | – | – |
| α-gliadin peptide LGQQQPFPPQQPY (SEQ ID 1), induces an enterocyte stress response (P31-43 sequence of alpha-gliadin) | – | – | – | – | stimulated TG2-mediated cross-linking | decrease in the abundance of phosphorylated PKA protein |
